Measured values reported in patent US20250127176A1 (priority 2021, published 2025).
Where two headings read alike, the source gives them in different places.

Columns and labels:
[1] = tested on: late blight of potato (Phytophthora infestans); assay type: in vivo
late blight of potato = assay type: in vivo, Phytophthora infestans; settings: T4: foliar spray, 7 days interval; 0.8 ml/L
[2] = T3: foliar spray 30, 45, 60 and 75th day, dose 2.0 mL/Litre
[3] = T4: foliar spray 30, 45, 60 and 75th day, dose 2 g/lit
[4] = T5: foliar spray 45th day only, dose 2 g/lit

Row | Compound | Per cent Disease Index (PDI) [1, 2] | Per cent reduction over control [1, 2] | Per cent Disease Index (PDI) (late blight of potato) | Per cent reduction over control (late blight of potato) | Per cent Disease Index (PDI) [1, 3] | Per cent reduction over control [1, 3] | Per cent Disease Index (PDI) [1, 4] | Per cent reduction over control [1, 4]
1 | C#CCOc1ccc(CCNC(=O)C(OCC#C)c2ccc(Cl)cc2)cc1OC (centres unmarked) [Mandipropamid] | 12.5% | 86.7% | 14.11% | 83.40% | – | – | – | –
2 | Mancozeb | – | – | – | – | 15.6% | 83.4% | 45.2% | 51.9%
